Test results as given in US9611251B2, “Substituted piperidine compounds and their use as orexin receptor modulators” (Janssen Pharmaceutica NV, priority 2013, dated 2017).

Assays:
[1] = target: human orexin 1 receptor (Homo sapiens, UniProt O43613); assay: Human orexin 1 receptor radioligand binding; settings: human orexin 1 receptor radioligand binding; averages of 2-20 runs; read-out: hOX1 Ki
[2] = target: rat orexin 1 receptor (Rattus norvegicus, UniProt P56718); assay: Rat orexin 1 receptor radioligand binding; settings: rat orexin 1 receptor radioligand binding; averages of 2-20 runs; read-out: rOX1 Ki
Procedure, shortened: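 Cell-suspension competition binding used 4 nM final tritiated thiazolyl-pyrrolidinyl-methanone radioligand in PBS, ≤0.1% DMSO, with 10 µM almorexant defining nonspecific binding. Filter-bound radioactivity was counted in triplicate. IC50 came from one-site competition fits and was converted to Ki using the predetermined Kd.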

[3] = target: human orexin 2 receptor (Homo sapiens (Human), UniProt O43614); assay: Human orexin 2 receptor radioligand binding ([3H]-EMPA); settings: averages of 2-20 runs, read-out: hOX2 Ki
Chain of human orexin 2 receptor (O43614 whole entry): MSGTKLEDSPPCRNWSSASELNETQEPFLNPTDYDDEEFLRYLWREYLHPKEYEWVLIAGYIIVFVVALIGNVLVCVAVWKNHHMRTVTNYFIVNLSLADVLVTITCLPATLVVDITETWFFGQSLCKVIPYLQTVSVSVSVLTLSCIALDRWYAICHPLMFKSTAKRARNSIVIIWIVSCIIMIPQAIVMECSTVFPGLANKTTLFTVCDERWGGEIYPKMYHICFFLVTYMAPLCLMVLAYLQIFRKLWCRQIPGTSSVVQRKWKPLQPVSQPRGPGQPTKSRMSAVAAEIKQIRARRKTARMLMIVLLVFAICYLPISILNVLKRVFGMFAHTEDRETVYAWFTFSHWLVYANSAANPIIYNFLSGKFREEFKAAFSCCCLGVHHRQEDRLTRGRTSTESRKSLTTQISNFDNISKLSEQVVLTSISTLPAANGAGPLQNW
Procedure, shortened: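 Competition binding using homogenized HEK293 cells stably expressing human orexin 2 receptor, [3H]-EMPA at 2 nM final and ≤0.1% DMSO; nonspecific binding set with 10 μM almorexant. Filter-bound radioactivity counted by scintillation; one-site competition IC50 converted to Ki using pre-determined Kd, compounds run in triplicate.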

SMILES | Ki [1] [nM] | Ki [2] [nM] | Ki [3] [nM]
C[C@H]1[C@H](Oc2ncc(C(F)(F)F)cn2)CCCN1C(=O)c1ccccc1-c1ncccn1 [Example 169, ((2S,3R)-2-methyl-3-((5-(trifluoromethyl)pyrimidin-2-yl)oxy)piperidin-1-yl)(2-(pyrimidin-2-yl)phenyl)methanone] | 23 | 32 | 1200
C[C@H]1[C@H](Nc2cnc(C(F)(F)F)cn2)CCCN1C(=O)c1ccc(F)cc1-c1ncccn1 (relative stereo) [Example 209, (4-fluoro-2-(pyrimidin-2-yl)phenyl)((2S*,3R*)-2-methyl-3-((5-(trifluoromethyl)pyrazin-2-yl)amino)piperidin-1-yl)methanone] | 25 | 16 | 944
C[C@H]1[C@H](Oc2ncc(Cl)cn2)CCCN1C(=O)c1cccc(F)c1-n1nccn1 [Example 161, ((2S,3R)-3-((5-chloropyrimidin-2-yl)oxy)-2-methylpiperidin-1-yl)(3-fluoro-2-(2H-1,2,3-triazol-2-yl)phenyl)methanone] | 395 | 226 | 3200
C[C@H]1[C@H](Oc2ccc(C(F)(F)F)cn2)CCCN1C(=O)c1cccc(F)c1-n1nccn1 [Example 124, (3-fluoro-2-(2H-1,2,3-triazol-2-yl)phenyl)((2S,3R)-2-methyl-3-((5-(trifluoromethyl)pyridin-2-yl)oxy)piperidin-1-yl)methanone] | 13 | 21 | 460
Cc1cccc(C(=O)N2CCC[C@@H](Oc3ccc(C(F)(F)F)cn3)[C@@H]2C)c1-n1nccn1 [Example 152, (3-methyl-2-(2H-1,2,3-triazol-2-yl)phenyl)((2S,3R)-2-methyl-3-((5-(trifluoromethyl)pyridin-2-yl)oxy)piperidin-1-yl)methanone] | 20 | 28 | 412
C[C@H]1[C@H](Nc2ccc(C(F)(F)F)cn2)CCCN1C(=O)c1ccc(F)cc1-n1nccn1 (relative stereo) [Example 192, (4-fluoro-2-(2H-1,2,3-triazol-2-yl)phenyl)((2S*,3R*)-2-methyl-3-((5-(trifluoromethyl)pyridin-2-yl)amino)piperidin-1-yl)methanone] | 25 | 27 | 543
C[C@H]1[C@H](Nc2ccc(C(F)(F)F)cn2)CCCN1C(=O)c1cccc(F)c1-c1ncccn1 (relative stereo) [Example 189, (3-fluoro-2-(pyrimidin-2-yl)phenyl)((2S*,3R*)-2-methyl-3-((5-(trifluoromethyl)pyridin-2-yl)amino)piperidin-1-yl)methanone] | 5 | 7 | 175
COc1ccc(-n2nccn2)c(C(=O)N2CCC[C@@H](Nc3cnc(C(F)(F)F)cn3)[C@@H]2C)c1 (relative stereo) [Example 184, (5-methoxy-2-(2H-1,2,3-triazol-2-yl)phenyl)((2S*,3R*)-2-methyl-3-((5-(trifluoromethyl)pyrazin-2-yl)amino)piperidin-1-yl)methanone] | 6 | 7 | 191
C[C@H]1[C@H](Oc2ncc(C(F)(F)F)cn2)CCCN1C(=O)c1cc(F)ccc1-c1ncco1 [Example 175, (5-fluoro-2-(oxazol-2-yl)phenyl)((2S,3R)-2-methyl-3-((5-(trifluoromethyl)pyrimidin-2-yl)oxy)piperidin-1-yl)methanone] | 188 | 124 | 4400
C[C@H]1[C@H](Oc2ncc(C(F)(F)F)cc2F)CCCN1C(=O)c1cccc(F)c1-c1ncccn1 [Example 155, (3-fluoro-2-(pyrimidin-2-yl)phenyl)((2S,3R)-3-((3-fluoro-5-(trifluoromethyl)pyridin-2-yl)oxy)-2-methylpiperidin-1-yl)methanone] | 16 | 28 | 1100
C[C@H]1[C@H](Oc2cnc(C(F)(F)F)cn2)CCCN1C(=O)c1cccc(F)c1-n1nccn1 [Example 125, (3-fluoro-2-(2H-1,2,3-triazol-2-yl)phenyl)((2S,3R)-2-methyl-3-((5-(trifluoromethyl)pyrazin-2-yl)oxy)piperidin-1-yl)methanone] | 138 | 117 | 2500
C[C@H]1[C@H](Oc2ccc(C(F)(F)F)cn2)CCCN1C(=O)c1ccc(F)cc1-c1ncccn1 [Example 139, (4-fluoro-2-(pyrimidin-2-yl)phenyl)((2S,3R)-2-methyl-3-((5-(trifluoromethyl)pyridin-2-yl)oxy)piperidin-1-yl)methanone] | 51 | 51 | 1200
C[C@H]1[C@H](Oc2ncc(C(F)(F)F)cc2F)CCCN1C(=O)c1ccccc1-c1ncccn1 [Example 154, ((2S,3R)-3-((3-fluoro-5-(trifluoromethyl)pyridin-2-yl)oxy)-2-methylpiperidin-1-yl)(2-(pyrimidin-2-yl)phenyl)methanone] | 22 | 46 | 526
C[C@H]1[C@H](Nc2nc3ccccc3o2)CCCN1C(=O)c1cccc(F)c1-c1ncccn1 (relative stereo) [Example 204, ((2S*,3R*)-3-(benzo[d]oxazol-2-ylamino)-2-methylpiperidin-1-yl)(3-fluoro-2-(pyrimidin-2-yl)phenyl)methanone] | 16 | 14 | 292
C[C@H]1[C@H](Oc2cnc(C(F)(F)F)cn2)CCCN1C(=O)c1ccccc1-c1ncc(F)cn1 [Example 166, (2-(5-fluoropyrimidin-2-yl)phenyl)((2S,3R)-2-methyl-3-((5-(trifluoromethyl)pyrazin-2-yl)oxy)piperidin-1-yl)methanone] | 124 | 97 | 3100
C[C@H]1[C@H](Oc2ncc(C(F)(F)F)cc2F)CCCN1C(=O)c1cc(F)ccc1-c1ncccn1 [Example 221, (5-fluoro-2-(pyrimidin-2-yl)phenyl)((2S,3R)-3-((3-fluoro-5-(trifluoromethyl)pyridin-2-yl)oxy)-2-methylpiperidin-1-yl)methanone] | 44 | 32 | 533
C[C@H]1[C@H](Nc2ncc(C(F)(F)F)cn2)CCCN1C(=O)c1ccc(F)cc1-n1nccn1 (relative stereo) [Example 198, (4-fluoro-2-(2H-1,2,3-triazol-2-yl)phenyl)((2S*,3R*)-2-methyl-3-((5-(trifluoromethyl)pyrimidin-2-yl)amino)piperidin-1-yl)methanone] | 92 | 119 | 2500
Cc1ccc(-n2nccn2)c(C(=O)N2CCC[C@@H](Oc3ncc(Cl)cn3)[C@@H]2C)n1 [Example 164, ((2S,3R)-3-((5-chloropyrimidin-2-yl)oxy)-2-methylpiperidin-1-yl)(6-methyl-3-(2H-1,2,3-triazol-2-yl)pyridin-2-yl)methanone] | 230 | 144 | 3800
C[C@H]1[C@H](Oc2ncc(C(F)(F)F)cc2F)CCCN1C(=O)c1ccccc1-n1nccn1 [Example 224, (2-(2H-1,2,3-triazol-2-yl)phenyl)((2S,3R)-3-((3-fluoro-5-(trifluoromethyl)pyridin-2-yl)oxy)-2-methylpiperidin-1-yl)methanone] | 47 | 33 | 576
C[C@H]1[C@H](Oc2ccc(Cl)cn2)CCCN1C(=O)c1ncccc1-c1ncccn1 [Example 218, ((2S,3R)-3-((5-chloropyridin-2-yl)oxy)-2-methylpiperidin-1-yl)(3-(pyrimidin-2-yl)pyridin-2-yl)methanone] | 29 | 26 | 495
Cc1cccc(C(=O)N2CCC[C@@H](Oc3ncc(C(F)(F)F)cc3F)[C@@H]2C)c1-c1ncccn1 [Example 220, ((2S,3R)-3-((3-fluoro-5-(trifluoromethyl)pyridin-2-yl)oxy)-2-methylpiperidin-1-yl)(3-methyl-2-(pyrimidin-2-yl)phenyl)methanone] | 25 | 23 | 393
C[C@H]1[C@H](Nc2nc3ccccc3o2)CCCN1C(=O)c1ccc(F)cc1-c1ncccn1 (relative stereo) [Example 206, ((2S*,3R*)-3-(benzo[d]oxazol-2-ylamino)-2-methylpiperidin-1-yl)(4-fluoro-2-(pyrimidin-2-yl)phenyl)methanone] | 16 | 16 | 564
Cc1cnc(C(=O)N2CCC[C@@H](Nc3ccc(C(F)(F)F)cn3)[C@@H]2C)c(-n2nccn2)c1 [Example 26, ((2S,3R)-2-methyl-3-((5-(trifluoromethyl)pyridin-2-yl)amino)piperidin-1-yl)(5-methyl-3-(2H-1,2,3-triazol-2-yl)pyridin-2-yl)methanone] | 16 | 12 | 2370
C[C@H]1[C@H](Oc2cnc(C(F)(F)F)cn2)CCCN1C(=O)c1ccccc1-c1ncccn1 [Example 168, ((2S,3R)-2-methyl-3-((5-(trifluoromethyl)pyrazin-2-yl)oxy)piperidin-1-yl)(2-(pyrimidin-2-yl)phenyl)methanone] | 25 | 29 | 951
Cc1ccc(-n2nccn2)c(C(=O)N2CCC[C@@H](Oc3ccc(Cl)cn3)[C@@H]2C)n1 [Example 215, ((2S,3R)-3-((5-chloropyridin-2-yl)oxy)-2-methylpiperidin-1-yl)(6-methyl-3-(2H-1,2,3-triazol-2-yl)pyridin-2-yl)methanone] | 35 | 12 | 374
